Reference: patent publication US20040023935A1, “Inhalation compositions, methods of use thereof, and process for preparation of same” (Dey, L.P., priority 2002, published 2004)
Values after ≈ are worked out from the molar mass of the structure shown.

Legend:
[1] = Amount of fluticasone solubilized in aqueous TPGS composition, by order of addition/mixing; format: physicochemical; details: target concentration 180 mcg/ml; for solubility: aqueous TPGS composition, aqueous with cosolvent or surfactant or cyclodextrin
Protocol: In one embodiment, the drug is dissolved in the surfactant, such as molten TPGS, and then added to water. For example, when fluticasone propionate is prepared this way with a target concentration of 180 mcg/ml, the amount solubilized by addition of molten TPGS containing the drug to water is about 180 mcg/mL. The amount solubilized by addition of water to molten TPGS, followed by addition of the drug, is only 77 mcg/mL. If the aqueous phase is added to the molten TPGS, the TPGS phase forms a gel and this, apart from making the mixing process slower, makes the amount solubilized lower and variable.
Thus, in Process 1, aqueous phase is added to a solution of the drug in molten TPGS. In Process 2, a solution of the drug in molten TPGS is added to the aqueous phase. To avoid gel formation, the TPGS phase is added to the aqueous phase and slowly. Rapid addition may form gel. Also, high speed mixing reduces the formation of gel.

[2] = Fluticasone solubilized in molten surfactant phase at 60° C.; format: physicochemical
Protocol: Whether the cosolvent, if present, is added to either the molten TPGS phase or the aqueous phase prior to mixing of the concentrate and the aqueous phase has been found herein to affect the stability of the resulting diluted composition. […] Cosolvents such as propylene glycol (PG) and polyethylene glycol 400 (PEG 400) can influence the amount solubilized by affecting the amount dissolved in the molten TPGS phase.
However, the order of addition influences the amount of drug that may be solubilized. If PG or PEG 400 is added in the molten TPGS phase before adding the drug, the amount solubilized increases (see Table 6b, below).

| Amount solubilized as percent of theoretical concentration, Mean ([1]; Process 1 (Aqueous phase added to the TPGS phase all at once and then mixed)) [%] | Amount solubilized as percent of theoretical concentration, Mean ([1]; Process 2 (TPGS phase added to aqueous phase slowly with mixing)) [%] | Fluticasone solubilized in molten surfactant phase at 60° C. ([2]; Surfactant phase: TPGS alone) | Fluticasone solubilized in molten surfactant phase at 60° C. ([2]; Surfactant phase: TPGS and polyethylene glycol 400 (1:1)) | Fluticasone solubilized in molten surfactant phase at 60° C. ([2]; Surfactant phase: TPGS and propylene glycol (2.4:1)) | solubility ([1]; addition of molten TPGS containing the drug to water) [µg/mL] | solubility ([1]; addition of water to molten TPGS, followed by addition of the drug) [µg/mL] | SMILES |
| --- | --- | --- | --- | --- | --- | --- | --- |
| 93.64 | 99.53 | 6.5 mg/g of TPGS | 20.0 mg/g of TPGS | 11.9 mg/g of TPGS | – | – | C[C@@H]1C[C@H]2[C@@H]3C[C@H](F)C4=CC(=O)C=C[C@]4(C)[C@@]3(F)[C@@H](O)C[C@]2(C)[C@@]1(O)C(=O)SCF [Fluticasone, (6α,9α,11α,16α,17α)-6,9-difluoro-11-hydroxy-16-methyl-3-oxo-17-hydroxyandrosta-1,4-diene-17-carbothioic acid, S-fluoromethyl ester] |
| – | – | – | – | – | ~180 (≈ 360 µM) | 77 (≈ 154 µM) | CCC(=O)O[C@]1(C(=O)SCF)[C@H](C)C[C@H]2[C@@H]3C[C@H](F)C4=CC(=O)C=C[C@]4(C)[C@@]3(F)[C@@H](O)C[C@@]21C [fluticasone propionate, (6α,9α,11α,16α,17α)-6,9-difluro-11-hydroxy-16-methyl-3-oxo-17-(1-oxopropoxy)androsta-1,4-diene-17-carbothioic acid, S-fluoromethyl ester] |
